According to PubChem BioAssay AID248 (DTP/NCI, 2004):
Where “and” joins values, the source holds several entries; their conditions need not be identical. Equal values may be shown once. Inconclusive results and toxic doses are left out. Rule as the data show it: active = T/C of 150% or more; inactive = T/C below 125%.

Test system: L1210 leukemia ip in BDF1 mice, survival T/C
Assay: NCI In Vivo Anticancer Drug Screen. Data for tumor model L1210 Leukemia (intraperitoneal) in B6D2F1 (BDF1) mice
Conditions: endpoint: mean survival time, higher = longer survival
Procedure, shortened: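 Read-out is survival time, reported as the treated-group measurement over the vehicle-control measurement.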

[1] = dose: 100.0 mg/kg/injection, schedule: Q01DX009 (ip), vehicle: Klucel (hydroxypropylcellulose) (HPC)
[2] = dose: 100.0 mg/kg/injection, schedule: Q04DX002 (ip), vehicle: Klucel (hydroxypropylcellulose) (HPC)
[3] = dose: 200.0 mg/kg/injection, schedule: Q01DX009 (ip), vehicle: Klucel (hydroxypropylcellulose) (HPC)
[4] = dose: 200.0 mg/kg/injection, schedule: Q04DX002 (ip), vehicle: Klucel (hydroxypropylcellulose) (HPC)
[5] = dose: 400.0 mg/kg/injection, schedule: Q04DX002 (ip), vehicle: Klucel (hydroxypropylcellulose) (HPC)
[6] = dose: 100.0 mg/kg/injection, schedule: Q04DX002 (ip), vehicle: saline
[7] = dose: 200.0 mg/kg/injection, schedule: Q04DX002 (ip), vehicle: saline
[8] = dose: 50.0 mg/kg/injection, schedule: Q01DX009 (ip), vehicle: saline with Tween-80
[9] = dose: 100.0 mg/kg/injection, schedule: Q01DX009 (ip), vehicle: saline with Tween-80
[10] = dose: 200.0 mg/kg/injection, schedule: Q01DX009 (ip), vehicle: saline with Tween-80
[11] = dose: 50.0 mg/kg/injection, schedule: Q01DX001 (ip), vehicle: carboxymethylcellulose (CMC)
[12] = dose: 100.0 mg/kg/injection, schedule: Q01DX001 (ip), vehicle: carboxymethylcellulose (CMC)
[13] = dose: 200.0 mg/kg/injection, schedule: Q01DX001 (ip), vehicle: carboxymethylcellulose (CMC)
[14] = dose: 400.0 mg/kg/injection, schedule: Q01DX001 (ip), vehicle: carboxymethylcellulose (CMC)
[15] = dose: 100.0 mg/kg/injection, schedule: Q04DX003 (ip), vehicle: Klucel (hydroxypropylcellulose) (HPC)
[16] = dose: 200.0 mg/kg/injection, schedule: Q04DX003 (ip), vehicle: Klucel (hydroxypropylcellulose) (HPC)
[17] = dose: 400.0 mg/kg/injection, schedule: Q01DX009 (ip), vehicle: Klucel (hydroxypropylcellulose) (HPC)
[18] = dose: 400.0 mg/kg/injection, schedule: Q04DX003 (ip), vehicle: Klucel (hydroxypropylcellulose) (HPC)
[19] = dose: 50.0 mg/kg/injection, schedule: Q01DX009 (ip), vehicle: Klucel (hydroxypropylcellulose) (HPC)
[20] = dose: 25.0 mg/kg/injection, schedule: Q01DX009 (ip), vehicle: saline with Tween-80
[21] = dose: 37.5 mg/kg/injection, schedule: Q04DX003 (ip), vehicle: saline
[22] = dose: 75.0 mg/kg/injection, schedule: Q04DX003 (ip), vehicle: saline

Measured: T/C

Cc1c(C(C)(C(=O)O)c2c(C)n(C)c3ccccc23)c2ccccc2n1C
inactive: dose: 50.0 mg/kg/injection, schedule: Q01DX001 (ip), vehicle: other 96 % of control | dose: 100.0 mg/kg/injection, schedule: Q01DX001 (ip), vehicle: other 93 % of control | dose: 200.0 mg/kg/injection, schedule: Q01DX001 (ip), vehicle: other 91 % of control | dose: 400.0 mg/kg/injection, schedule: Q01DX001 (ip), vehicle: other 96 % of control

C=C(C)COC(OCC(=C)C)C(C)C
inactive: [1] 96 % of control | [2] 102 % of control | [3] 89 % of control | [4] 109 % of control | [5] 112 % of control

CC(C)CNCc1cc(Nc2ccnc3cc(Cl)ccc23)ccc1O
inactive: [6] 94 % of control | [7] 98 % of control

O=c1[nH]c(=O)c2[nH]cnc2[nH]1
inactive: [8] 100 % of control | [9] 94 % of control | [10] 90 % of control

Nc1nc2c(ncn2C2OC(COC(=O)c3ccc(Cl)cc3)C(OC(=O)c3ccc(Cl)cc3)C2OC(=O)c2ccc(Cl)cc2)c(=O)[nH]1 (configuration not stated)
inactive: [11] 95 % of control | [12] 97 % of control | [13] 91 % of control | [14] 97 % of control

COc1c([N+](=O)[O-])cc(C(=O)O)cc1[N+](=O)[O-]
inactive: [1] 104 % of control | [15] 99 % of control | [3] 98 % of control | [16] 97 % of control | [17] 98 % of control | [18] 97 % of control

N/N=C(\N)NN
inactive: dose: 15.0 mg/kg/injection, schedule: Q01DX Z (ip), vehicle: methylcellulose (MC) 102 % of control | dose: 30.0 mg/kg/injection, schedule: Q01DX Z (ip), vehicle: methylcellulose (MC) 100 % of control | dose: 60.0 mg/kg/injection, schedule: Q01DX Z (ip), vehicle: methylcellulose (MC) 102 % of control | dose: 120.0 mg/kg/injection, schedule: Q01DX Z (ip), vehicle: methylcellulose (MC) 105 % of control | dose: 240.0 mg/kg/injection, schedule: Q01DX Z (ip), vehicle: methylcellulose (MC) 114 % of control | dose: 240.0 mg/kg/injection, schedule: Q01DX Z (oral), vehicle: methylcellulose (MC) 95 % of control | dose: 420.0 mg/kg/injection, schedule: Q01DX Z (oral), vehicle: methylcellulose (MC) 100 % of control | dose: 480.0 mg/kg/injection, schedule: Q01DX Z (ip), vehicle: methylcellulose (MC) 103 % of control | dose: 600.0 mg/kg/injection, schedule: Q01DX Z (oral), vehicle: methylcellulose (MC) 105 % of control | dose: 720.0 mg/kg/injection, schedule: Q01DX Z (ip), vehicle: methylcellulose (MC) 119 % of control

CCCCCCCCCN(C)C(C)=O
inactive: dose: 75.0 mg/kg/injection, schedule: Q01DX001 (ip), vehicle: carboxymethylcellulose (CMC) 94 % of control | dose: 150.0 mg/kg/injection, schedule: Q01DX001 (ip), vehicle: carboxymethylcellulose (CMC) 91 % of control | dose: 300.0 mg/kg/injection, schedule: Q01DX001 (ip), vehicle: carboxymethylcellulose (CMC) 96 % of control

O=C(COc1ccc(Cl)cc1Cl)NNc1ccc([N+](=O)[O-])cc1
inactive: [6] 100 % of control | [7] 92 % of control | dose: 400.0 mg/kg/injection, schedule: Q04DX002 (ip), vehicle: saline 88 % of control

Cc1cccc(Cl)c1NC(=O)C(Cl)Cl
inactive: [2] 113 % of control | [4] 107 % of control | [5] 110 % of control

O=C(CCN1CC1)OCCc1ccccc1
inactive: dose: 20.0 mg/kg/injection, schedule: Q04DX003 (ip), vehicle: Klucel (hydroxypropylcellulose) (HPC) 98 % of control | dose: 25.0 mg/kg/injection, schedule: Q01DX009 (ip), vehicle: Klucel (hydroxypropylcellulose) (HPC) 111 % of control | dose: 40.0 mg/kg/injection, schedule: Q04DX003 (ip), vehicle: Klucel (hydroxypropylcellulose) (HPC) 95 % of control | [19] 97 % of control | dose: 80.0 mg/kg/injection, schedule: Q04DX003 (ip), vehicle: Klucel (hydroxypropylcellulose) (HPC) 101 % of control | [15] 98 % of control

COc1ccccc1/C=N/Nc1nnc(N/N=C/c2ccccc2OC)c2ccccc12
inactive: [11] 107 % of control | [12] 103 % of control | [13] 101 % of control | [14] 103 % of control

O=c1[nH]c(CC(O)C(Cl)(Cl)Cl)nc2ccccc12 (configuration not stated)
inactive: [19] 100 % of control | [1] 100 % of control | [3] 103 % of control

COC(C)C(O)(C(N)=O)C(C)C (configuration not stated)
inactive: [1] 98 % of control | [15] 101 % of control | [3] 98 % of control | [16] 101 % of control | [17] 102 % of control | [18] 97 % of control

COc1ccc(OC)c(NC(=O)NNC(=O)CNC(=O)Nc2cccc(C)n2)c1
inactive: [20] 94 % of control | [8] 94 % of control | [9] 90 % of control

CC(O)C(C)Cl (configuration not stated)
inactive: dose: 50.0 mg/kg/injection, schedule: Q01DX009 (ip), vehicle: saline 100 % of control | dose: 100.0 mg/kg/injection, schedule: Q01DX009 (ip), vehicle: saline 103 % of control

CCCCS(=O)(=O)c1nc2ccc([N+](=O)[O-])cc2s1
inactive: dose: 100.0 mg/kg/injection, schedule: Q04DX002 (ip), vehicle: saline with Tween-80 92 % of control | dose: 200.0 mg/kg/injection, schedule: Q04DX002 (ip), vehicle: saline with Tween-80 95 % of control

CCC1(C)N=C(N)N=C(N)N1c1ccc(Cl)c(Cl)c1 (configuration not stated)
inactive: [21] 111 % of control | dose: 75.0 mg/kg/injection, schedule: Q01DX001 (ip), vehicle: saline 103 % of control | [22] 111 % of control | dose: 150.0 mg/kg/injection, schedule: Q01DX001 (ip), vehicle: saline 101 % of control | dose: 150.0 mg/kg/injection, schedule: Q04DX003 (ip), vehicle: saline 105 % of control

O=c1cccc2n1Cc1cc3ccccc3nc1-2
inactive: [21] 95 % of control | [22] 89 % of control

OC(CN1CCCCC1)c1ccc2oc3ccccc3c2c1 (configuration not stated)
inactive: [2] 110 % of control | [4] 92 % of control

Nc1ncnc2c(C3OC(CO)C(O)C3O)[nH]nc12 (configuration not stated)
inactive: dose: 5.0 mg/kg/injection, schedule: Q01DX015 (ip), vehicle: carboxymethylcellulose (CMC) 95 % of control | dose: 10.0 mg/kg/injection, schedule: Q01DX015 (ip), vehicle: carboxymethylcellulose (CMC) 109 % of control | dose: 12.5 mg/kg/injection, schedule: Q01DX009 (ip), vehicle: saline with Tween-80 119 % of control | dose: 20.0 mg/kg/injection, schedule: Q01DX015 (ip), vehicle: carboxymethylcellulose (CMC) 111 % of control | [20] 98 % of control | [11] 109 % of control | [12] 111 % of control | dose: 100.0 mg/kg/injection, schedule: Q01DX001 (ip), vehicle: saline 108 % of control | dose: 100.0 mg/kg/injection, schedule: Q04DX003 (ip), vehicle: saline with Tween-80 114 % of control | dose: 133.0 mg/kg/injection, schedule: Q04DX003 (ip), vehicle: saline with Tween-80 100 % of control and 117 % of control | [13] 115 % of control | dose: 200.0 mg/kg/injection, schedule: Q04DX003 (ip), vehicle: saline with Tween-80 111 % of control | dose: 300.0 mg/kg/injection, schedule: Q04DX003 (ip), vehicle: saline with Tween-80 88 % of control

O=C(c1ccccc1)c1ccc2ccc(F)cc2c1C(=O)O
inactive: [9] 113 % of control | dose: 100.0 mg/kg/injection, schedule: Q04DX003 (ip), vehicle: other 95 % of control | [10] 113 % of control | dose: 200.0 mg/kg/injection, schedule: Q04DX003 (ip), vehicle: other 103 % of control | dose: 400.0 mg/kg/injection, schedule: Q01DX009 (ip), vehicle: saline with Tween-80 107 % of control | dose: 400.0 mg/kg/injection, schedule: Q04DX003 (ip), vehicle: other 101 % of control
